How the values were obtained:
[1] = test system: MCF-7
[2] = test system: MIA PaCa-2
[3] = test system: MIA PaCa-2; test: cells; settings: Homo sapiens, MIA PaCa-2, read-out: Estimated IC50 (50% Inhibition Concentration)
[4] = test system: MCF-7; test: cells; settings: Homo sapiens, MCF7, read-out: Estimated IC50 (50% Inhibition Concentration)
[5] = test system: tumor patients; settings: in vivo; cited from earlier work

With `CO[C@@]12[C@H](COC(N)=O)C3=C(C(=O)C(C)=C(N)C3=O)N1C[C@@H]1N[C@@H]12` [Mitomycin] the “Estimated TGI (Total Growth Inhibition)” value [1] was 180 nM, the “Estimated TGI (Total Growth Inhibition)” value [2] was 150 nM and the IC50 [3] was 28 nM. It also gave an IC50 [4] of 35 nM.
In the case of ^90Y-DOTA-lanreotide, the “patients with stable tumor disease” value [5] is given as “roughly 35%”, the toxicity reported [5] is given as “No acute or chronic severe hematological toxicity” and the “tumor patients with regressive disease” value [5] is given as 15%.

— US7115708B2 (priority 2001, dated 2006)
